Experimental data as given in ChEMBL document CHEMBL6078714, “Discovery of N-Trifluoromethylated Noscapines as Novel and Potent Agents for the Treatment of Glioblastoma” (J Med Chem, 2025).
Calls of active or inactive are those of the source. The calls are words filed in the database; no cut-off is given here.

Key:
U-118-MG [1] = experiment: Induction of apoptosis in human U-118-MG cells assessed as downregulation of Bcl-XL expression level at 1 to 40 uM incubated for 24 hrs by Western blot analysis; assay type: functional, cell-based; details: dose 1-40 µM
[2] = Toxicity in male BALB/c nude mouse xenografted with human U-118-MG cells assessed as effect on serum AST level at 2.5 to 10 mg/kg, ip administered daily for 4 weeks; assay type: organism-based; details: in vivo, 672 h, dose 2.5-10 mg/kg
[3] = Permeability of compound incubated for 12 hrs by PAMPA; assay type: ADME; details: read-out: permeability
[4] = Stability of compound in 0.1M HCl solution at pH 1.0 assessed as parent compound remaining measured after 48 hrs by 1H NMR analysis; assay type: physicochemical; details: read-out: Stability
U-118-MG [5] = experiment: Antitumor activity against human U-118-MG cells xenografted in male BALB/c nude mouse assessed as tumor growth inhibition at 10 mg/kg, ip administered daily for 4 weeks relative to control; assay type: functional; details: 672 h, read-out: TGI
U-87 MG = experiment: Antiproliferative activity against human U-87 MG cells assessed as inhibition of cell proliferation incubated for 72 hrs by CCK8 assay; assay type: functional, cell-based, U-87MG ATCC
U-118-MG [6] = experiment: Cell cycle arrest in human U-118-MG cells assessed as accumulation of cells at S phase at 10 uM incubated for 24 hrs by flow cytometric analysis (reference value: 10.7 %); assay type: functional
U-118-MG [7] = experiment: Induction of apoptosis in human U-118-MG cells assessed as downregulation of c-Myc expression level at 1 to 40 uM incubated for 24 hrs by Western blot analysis; assay type: functional, cell-based; details: dose 1-40 µM
[8] = Ratio of drug concentration in Sprague-Dawley rat brain to plasma at 5 mg/kg, ip measured after 0.5 hrs; assay type: ADME, organism-based; details: read-out: BPR
U-118-MG [9] = experiment: Cell cycle arrest in human U-118-MG cells assessed as accumulation of cells at S phase at 30 uM incubated for 24 hrs by flow cytometric analysis (reference value: 10.7 %); assay type: functional
[10] = Toxicity in male BALB/c nude mouse xenografted with human U-118-MG cells assessed as effect on serum creatinine level at 2.5 to 10 mg/kg, ip administered daily for 4 weeks; assay type: organism-based; details: in vivo, 672 h, dose 2.5-10 mg/kg
[11] = Half-life in Sprague-Dawley rat at 5 mg/kg, ip; assay type: ADME, organism-based; details: in vivo
[12] = Toxicity in male BALB/c nude mouse xenografted with human U-118-MG cells assessed as body weight loss at 2.5 to 10 mg/kg, ip administered daily for 4 weeks; assay type: organism-based; details: in vivo, 672 h, dose 2.5-10 mg/kg
Tubulin (Homo sapiens) = Tubulin (Homo sapiens) (UniProt P68371+Q9H4B7+P0DPH7+P68366+Q13509+Q71U36+P04350+Q3ZCM7+P07437+P68363+Q9BQE3+Q6PEY2+Q13885+Q9BVA1+Q9BUF5); experiment: Disruption of tubulin polymerization in human U-118-MG cells at 3 to 20 uM by DAPI staining based immunofluorescence analysis; assay type: cell-based; details: dose 3-20 µM
[13] = Drug distribution in Sprague-Dawley rat brain at 5 mg/kg, ip measured after 0.5 hrs; assay type: ADME, organism-based; details: read-out: Ct
U-118-MG [14] = experiment: Cell cycle arrest in human U-118-MG cells assessed as accumulation of cells at G2 phase at 20 uM incubated for 24 hrs by flow cytometric analysis (reference value: 30.6 %); assay type: functional
[15] = AUC (0 to 24 hrs) in Sprague-Dawley rat at 5 mg/kg, ip; assay type: ADME, organism-based; details: in vivo
[16] = Drug distribution in Sprague-Dawley rat plasma at 5 mg/kg, ip measured after 0.5 hrs; assay type: ADME, organism-based
U-118-MG [17] = experiment: Cell cycle arrest in human U-118-MG cells assessed as accumulation of cells at S phase at 20 uM incubated for 24 hrs by flow cytometric analysis (reference value: 10.7 %); assay type: functional
[18] = Toxicity in male BALB/c nude mouse xenografted with human U-118-MG cells assessed as metastasis in kidney at 2.5 to 10 mg/kg, ip administered daily for 4 weeks by H and E staining based analysis; assay type: organism-based; details: in vivo, 672 h, dose 2.5-10 mg/kg
[19] = Toxicity in male BALB/c nude mouse xenografted with human U-118-MG cells assessed as metastasis in lung at 2.5 to 10 mg/kg, ip administered daily for 4 weeks by H and E staining based analysis; assay type: organism-based; details: in vivo, 672 h, dose 2.5-10 mg/kg
[20] = Toxicity in male BALB/c nude mouse xenografted with human U-118-MG cells assessed as effect on serum ALT level at 2.5 to 10 mg/kg, ip administered daily for 4 weeks; assay type: organism-based; details: in vivo, 672 h, dose 2.5-10 mg/kg
U-118-MG [21] = experiment: Cell cycle arrest in human U-118-MG cells assessed as accumulation of cells at S phase at 3 uM incubated for 24 hrs by flow cytometric analysis (reference value: 10.7 %); assay type: functional
U-118-MG [22] = experiment: Cell cycle arrest in human U-118-MG cells assessed as accumulation of cells at G1 phase at 30 uM incubated for 24 hrs by flow cytometric analysis (reference value: 56.2 %); assay type: functional
[23] = Toxicity in male BALB/c nude mouse xenografted with human U-118-MG cells assessed as metastasis in heart at 2.5 to 10 mg/kg, ip administered daily for 4 weeks by H and E staining based analysis; assay type: organism-based; details: in vivo, 672 h, dose 2.5-10 mg/kg
[24] = Observed clearance in Sprague-Dawley rat at 5 mg/kg, ip; assay type: ADME, organism-based; details: in vivo
U-118-MG [25] = experiment: Cell cycle arrest in human U-118-MG cells assessed as accumulation of cells at G1 phase at 10 uM incubated for 24 hrs by flow cytometric analysis (reference value: 56.2 %); assay type: functional
U-118-MG [26] = experiment: Antitumor activity against human U-118-MG cells xenografted in male BALB/c nude mouse assessed as tumor growth inhibition at 5 mg/kg, ip administered daily for 4 weeks relative to control; assay type: functional; details: 672 h, read-out: TGI
U-118-MG [27] = experiment: Induction of apoptosis in human U-118-MG cells incubated for 24 hrs by Annexin V-FITC/PI staining based flow cytometric analysis; assay type: functional, cell-based; details: dose 3-40 µM
U-118-MG [28] = experiment: Cell cycle arrest in human U-118-MG cells assessed as accumulation of cells at G2 phase at 30 uM incubated for 24 hrs by flow cytometric analysis (reference value: 30.6 %); assay type: functional
[29] = Tmax in Sprague-Dawley rat at 5 mg/kg, ip; assay type: ADME, organism-based; details: in vivo
[30] = Toxicity in male BALB/c nude mouse xenografted with human U-118-MG cells assessed as metastasis in spleen at 2.5 to 10 mg/kg, ip administered daily for 4 weeks by H and E staining based analysis; assay type: organism-based; details: in vivo, 672 h, dose 2.5-10 mg/kg
U-118-MG [31] = experiment: Antitumor activity against human U-118-MG cells xenografted in male BALB/c nude mouse assessed as suppression of tumor growth at 2.5 to 10 mg/kg, ip administered daily for 4 weeks; assay type: functional, organism-based; details: dose 2.5-10 mg/kg
U-118-MG [32] = experiment: Antiproliferative activity against human U-118- MG cells assessed as inhibition of cell proliferation by crystal violet staining based analysis; assay type: functional; details: dose 10-40 µM
U-118-MG [33] = experiment: Cell cycle arrest in human U-118-MG cells assessed as accumulation of cells at G1 phase at 3 uM incubated for 24 hrs by flow cytometric analysis (reference value: 56.2 %); assay type: functional
[34] = Observed volume of distribution in Sprague-Dawley rat at 5 mg/kg, ip; assay type: ADME, organism-based; details: in vivo
[35] = Stability of compound in sodium phosphate buffer at pH 7.4 measured after 48 hrs by 1H NMR analysis; assay type: physicochemical; details: pH 7.4, 48 h

COc1ccc2c(c1OC)C(=O)O[C@@H]2[C@H]1c2c(c(Br)c3c(c2OC)OCO3)CCN1C(F)(F)F
Activity (U-118-MG [1]): Active
Activity [2]: Non-toxic
Papp at 12 h [3]: 12.1 ×10⁻⁶ cm/s
remaining at 48 h [4]: 86%
inhibition in vivo at 10 mg/kg (U-118-MG [5]): 38.5%
IC50 (U-87 MG): 7.46 µM
Activity (U-118-MG [6]): 9.24%
Activity (U-118-MG [7]): Active
Kp at 0.5 h [8]: 0.349
Activity (U-118-MG [9]): 14.8%
Activity [10]: Non-toxic
half-life [11]: 5.64 h
Activity [12]: Non-toxic
Activity (Tubulin (Homo sapiens)): Active
concentration at 0.5 h [13]: 35.4 ng/g
Activity (U-118-MG [14]): 40%
AUC [15]: 661 ng·h/mL
concentration at 0.5 h [16]: 99.6 ng/mL
Activity (U-118-MG [17]): 9.68%
Activity [18]: Non-toxic
Activity [19]: Non-toxic
Activity [20]: Non-toxic
Activity (U-118-MG [21]): 10.4%
Activity (U-118-MG [22]): 29.5%
Activity [23]: Non-toxic
CL [24]: 135 mL/min/kg
Activity (U-118-MG [25]): 56.6%
inhibition in vivo at 5 mg/kg (U-118-MG [26]): 37.7%
Activity (U-118-MG [27]): Dose-dependent-effect
Activity (U-118-MG [28]): 52.2%
Tmax [29]: 0.5 h
Activity [30]: Non-toxic
Activity (U-118-MG [31]): Active
Activity (U-118-MG [32]): Dose-dependent-effect
Activity (U-118-MG [33]): 55.7%
Vd [34]: 65.2 L/kg
Stability [35]: Stable
